Data taken from US9458135B2, “Dihydroquinoline-2-one derivatives” (Hoffmann-La Roche Inc., priority 2014, dated 2016).

Experiments:
[1] = molecular target: human CYP11B2 (Homo sapiens (Human), UniProt P19099); experiment: G-402 cellular enzyme assay, human CYP11B2 (aldosterone release, HTRF); assay type: cell-based; details: G-402 cells expressing human CYP11B2; 1 μM Deoxycorticosterone
Excerpt: (§1) Herein we identified the use of the G-402 cell line as a host cell to ectopically express (transiently or stably) enzymes of the CYP11 family. Specifically we developed stable G-402 cells expressing ectopically human CYP11B1, human CYP11B2, human CYP11A1, cynmolgus CYP11B1 or cynomolgus CYP11B2 enzyme activity. Importantly the identified cell line G-402 expresses co-factors (adrenodoxin and adrenodoxin reductase) important for the activity of the CYP11 family and no relevant enzyme activity of the CYP11 family (in comparison to H295R cells) was detected in these cells. Therefore the G-402 cell line is uniquely suited as a host cell for the ectopic expression of enzymes from the CYP11 family.
(§2) The expression plasmids contains the ORF for either huma/cyno CYP11B1 or CYP11B2 under the control of a suitable promoter (CMV-promoter) and a suitable resistance marker (neomycin). Using standard techniques the expression plasmid is transfected into G-402 cells and these cells are then selected for expressing the given resistance markers. Individual cell-clones are then selected and assessed for displaying the desired enzymatic activity using 11-Deoxycorticosterone (Cyp11B2) or 11-Deoxycortisol (Cyp11B1) as a substrate.
(§3) G-402 cells expressing CYP11 constructs were established as described above and maintained in McCoy's 5a Medium Modified, ATCC Catalog No. 30-2007 containing 10% FCS and 400 μg/ml G418 (Geneticin) at 37° C. under an atmosphere of 5% CO2/95% air. Cellular enzyme assays were performed in DMEM/F12 medium containing 2.5% charcoal treated FCS and appropriate concentration of substrate (0.3-10 uM 11-Deoxycorticosterone, 11-Deoxycortisol or Corticosterone). For assaying enzymatic activity, cells were plated onto 96 well plates and incubated for 16 h. An aliquot of the supernatant is then transferred and analyzed for the concentration of the expected product (Aldosterone for CYP11B2; Cortisol for CYP11B1). The concentrations of these steroids can be determined using HTRF assays from CisBio analyzing either Aldosterone or Cortisol.
(§4) Inhibition of the release of produced steroids can be used as a measure of the respective enzyme inhibition by test compounds added during the cellular enzyme assay. The dose dependent inhibition of enzymatic activity by a compound is calculated by means of plotting added inhibitor concentrations (x-axes) vs. measured steroid/product level (y-axes). The inhibition is then calculated by fitting the following 4-parameter sigmoidal function (Morgan-Mercer-Flodin (MMF) model) to the raw data points using the least squares method:
(§5) [formula] wherein, A is the maximum y value, B is the EC50 factor determined using XLFit, C is the minimum y value and D is the slope value.
(§6) EC50 values for compounds claimed herein were tested with the G402-based assay system described. Cyp11B2 enzyme activity was tested in presence of 1 μM Deoxycorticosterone and variable amounts of inhibitors; Cyp11B1 enzyme activity was tested in presence of 1 μM Deoxycortisol and variable amounts of inhibitors.

[2] = molecular target: human CYP11B1 (Homo sapiens (Human), UniProt P15538); experiment: G-402 cellular enzyme assay, human CYP11B1 (cortisol release, HTRF); assay type: cell-based; details: G-402 cells expressing human CYP11B1; 1 μM Deoxycortisol
Sequence of human CYP11B1 (P15538 25-503): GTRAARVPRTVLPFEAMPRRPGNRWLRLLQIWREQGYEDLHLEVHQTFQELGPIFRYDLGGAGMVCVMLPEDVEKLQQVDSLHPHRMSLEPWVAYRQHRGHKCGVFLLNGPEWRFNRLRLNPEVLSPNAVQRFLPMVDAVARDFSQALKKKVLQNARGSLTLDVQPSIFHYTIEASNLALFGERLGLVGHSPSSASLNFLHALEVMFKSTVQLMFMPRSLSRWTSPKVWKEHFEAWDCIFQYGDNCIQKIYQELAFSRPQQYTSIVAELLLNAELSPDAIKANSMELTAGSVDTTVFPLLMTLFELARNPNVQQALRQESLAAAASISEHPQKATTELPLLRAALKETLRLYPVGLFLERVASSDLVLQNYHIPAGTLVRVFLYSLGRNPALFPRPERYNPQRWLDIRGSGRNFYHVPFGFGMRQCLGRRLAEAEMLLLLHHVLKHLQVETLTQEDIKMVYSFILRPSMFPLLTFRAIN
Excerpt: as §1, §2, §3, §4, §5, §6

[3] = system: rat model of chronic kidney disease; details: cited from earlier work; for plasma aldosterone: FAD286 following 4 weeks of treatment, spironolactone at 4 and 8 weeks; for renal effects (albuminuria, azotemia, renovascular hypertrophy, glomerular injury, PAI-1 and osteopontin mRNA, tubulointerstitial fibrosis): angiotensin II and high salt treatment
[4] = system: rats with experimental heart failure; details: cited from earlier work
[5] = system: patients with primary aldosteronism; details: cited from earlier work

Sequence of human CYP11B2 (P19099 25-503): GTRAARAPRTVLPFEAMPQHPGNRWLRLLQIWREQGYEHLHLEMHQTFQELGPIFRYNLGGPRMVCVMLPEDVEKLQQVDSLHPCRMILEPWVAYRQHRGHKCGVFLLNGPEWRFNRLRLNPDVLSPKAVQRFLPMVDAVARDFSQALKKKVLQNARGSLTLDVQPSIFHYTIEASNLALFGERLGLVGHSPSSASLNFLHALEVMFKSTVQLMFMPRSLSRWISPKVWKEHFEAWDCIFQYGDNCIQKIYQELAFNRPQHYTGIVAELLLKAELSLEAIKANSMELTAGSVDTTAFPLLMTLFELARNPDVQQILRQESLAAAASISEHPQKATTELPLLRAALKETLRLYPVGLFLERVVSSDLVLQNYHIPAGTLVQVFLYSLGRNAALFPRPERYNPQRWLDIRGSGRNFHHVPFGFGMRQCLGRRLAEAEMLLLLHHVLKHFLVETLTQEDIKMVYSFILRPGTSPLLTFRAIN

Compound	EC50 [1] [µM]	EC50 [2] [µM]	plasma aldosterone [3]	renal effects (albuminuria, azotemia, renovascular hypertrophy, glomerular injury, PAI-1 and osteopontin mRNA, tubulointerstitial fibrosis) [3]	angiotensin II and salt-stimulated PAI-1 mRNA expression in the aorta and the heart [3]	further results
CN1C(=O)CCc2cc(-c3cncc(CC(=O)Nc4cccc(Cl)c4)c3)ccc21 [Example 29, N-(3-Chloro-phenyl)-2-[5-(1-methyl-2-oxo-1,2,3,4-tetrahydro-quinolin-6-yl)-pyridin-3-yl]-acetamide]	0.0127	0.307	–	–	–	–
CN1C(=O)CCc2cc(-c3cncc(CC(=O)Nc4cccc(Cl)n4)c3)ccc21 [Example 30, N-(6-Chloro-pyridin-2-yl)-2-[5-(1-methyl-2-oxo-1,2,3,4-tetrahydro-quinolin-6-yl)-pyridin-3-yl]-acetamide]	0.0068	0.0405	–	–	–	–
N#Cc1ccc([C@H]2CCCc3cncn32)cc1 [FAD286]	–	–	reduced	prevented these renal effects	not	blood pressure and cardiovascular function and structure [4]: improved; kidney function and morphology [4]: improve
N#Cc1ccc([C@H]2CCc3cncn32)c(F)c1 [LCI699]	–	–	–	–	–	selectivity (effects on the glucocorticoid axis) [5]: poor selectivity; blood pressure ([5]; oral): mildly decreased; circulating aldosterone levels ([5]; oral): significantly lower; hypokalemia ([5]; oral): corrected
CC(=O)S[C@@H]1CC2=CC(=O)CC[C@]2(C)[C@H]2CC[C@@]3(C)[C@@H](CC[C@@]34CCC(=O)O4)[C@H]12 [spironolactone]	–	–	increased	prevented these renal effects	enhanced	–
